Several values for one entry are separate records, joined by “and”; a condition that tells them apart may be missing. Equal entries are not always repeated.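 Compound exposure: 48 hours, 5 concentrations, 96-well plates. Here, GI50 denotes the concentration required for 50% inhibition of growth. The concentration for full growth arrest is given as TGI.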
Experiments:
Experiment in all cases: NCI-60 cell line screen, 48 h
[1] = system: UACC-257 melanoma
[2] = system: OVCAR-5 ovarian
[3] = system: HCT-15 colon
[4] = system: SK-MEL-28 melanoma
[5] = system: MDA-MB-231 breast
[6] = system: CCRF-CEM leukemia
[7] = system: KM12 colon
[8] = system: DU-145 prostate
[9] = system: HS 578T breast
[10] = system: NCI-H226 lung

Compound	TGI [1]	TGI [2] [µM]	TGI [3] [µM]	TGI [4]	TGI [5] [µM]	TGI [6]	TGI [7] [µM]	TGI [8] [µM]	TGI [9] [µM]	TGI [10]	GI50 [1] [µM]	GI50 [2] [µM]	GI50 [3] [µM]	GI50 [10] [µM]	GI50 [4] [µM]	GI50 [6] [µM]	GI50 [7] [µM]	GI50 [5] [µM]	GI50 [8] [µM]	GI50 [9] [µM]
Clc1ccc(C(c2ccc(Cl)cc2)N2CCNCC2)cc1	4.62 µM	18.3	8.79	3.45 µM	4.4	15.3 µM	3.63	7.07	7.89											
CCOC(=O)c1cc2c(cn1)[nH]c1cccc(N)c12	> 100 µM	> 100		> 100 µM		> 100 µM	> 100													
O=c1cc(-c2ccccc2)nc(/C=C(\O)c2ccncc2)n1-c1ccccc1	> 100 µM	> 100	> 100	> 100 µM		> 100 µM	> 100			> 100 µM										
COC(=O)[C@@]1(O)CC(C)C=C1C=O (stereo partly drawn)	> 100 µM	> 100	33.1	> 100 µM		> 100 µM	> 100			> 100 µM										
CN(C(=O)C12C3(C(=O)C(C)(C)C)C4C5(C#N)C3C1(C(=O)C(C)(C)C)C5C42C(=O)C(C)(C)C)C(C)(C)C (stereo not drawn)	> 50 µM	> 50	> 50	> 50 µM		> 50 µM	> 50			> 50 µM										
CCCCCCCCC(O)C#CC(N)=O (stereo not drawn)	26.9 µM	43.9	30.9	31.8 µM		72.5 µM				25.6 µM										
Cc1ccc(-c2cc(=O)c3cc(C)c(C)c(C(=O)O)c3o2)cc1	> 100 µM	> 100	> 100	> 100 µM		> 100 µM	> 100													
C/C(CC(=O)Nc1ccc(Cl)cc1)=N\NC(=O)C[n+]1ccccc1	> 100 µM	> 100		> 100 µM		> 100 µM	> 100			> 100 µM										
CC(C)(O)[C@@H]1CC[C@@]2(C)CCC[C@H](O)[C@H]2C1	> 100 µM	> 100	> 100	> 100 µM		> 100 µM	> 100			> 100 µM										
O=C1C2CC=CCC2C(=O)C12CCc1ccccc12 (stereo not drawn)			> 100	> 100 µM		> 100 µM														
CC(=O)OC(C)(C)/C=C/C(=O)[C@](C)(O)[C@H]1[C@H](O)C[C@@]2(C)[C@@H]3CC=C4[C@@H](C[C@H](O)C(=O)C4(C)C)[C@]3(CO)C(=O)C[C@]12C	0.943 µM and 6.36 µM	41	> 100	0.697 µM and 0.254 µM		0.96 µM and 2.62 µM	32.7			0.776 µM and 0.293 µM	0.284	0.73	0.351	0.29	0.034	0.0959	0.703			
CN1CCN(C(=O)c2c(NC(=O)NS(=O)(=O)c3ccccc3)sc3c2CCCCC3)CC1	> 100 µM	> 100	74.6		79.6	> 100 µM	80.1	> 100	> 100	> 100 µM	35.6	76.3	26.3	33.1		32.8	29.3	27.5	41	40.3
CN(C)C(=S)/N=c1\ss/c(=N\C(=S)N(C)C)n1-c1ccc(Cl)cc1	> 100 µM	> 100	> 100	> 100 µM		> 100 µM	> 100			> 100 µM										
O=C(O)C1C(=O)Oc2c(cccc2[N+](=O)[O-])C1O (stereo not drawn)	> 100 µM	> 100	> 100	> 100 µM	> 100	> 100 µM		> 100	> 100	> 100 µM										
O=C1[C@H]2ON(c3ccccc3)C(c3ccccc3F)[C@H]2C(=O)N1c1ccc(Cc2ccc(N3C(=O)[C@@H]4ON(c5ccccc5)C(c5ccccc5F)[C@@H]4C3=O)cc2)cc1 (stereo partly drawn)	> 100 µM	> 100	> 100	> 100 µM		> 100 µM	> 100			> 100 µM										
O=C(/C=C/c1cccc([N+](=O)[O-])c1)c1ccc(O)c(CN2CCN(c3cc4c(cc3F)c(=O)c(C(=O)O)cn4C3CC3)CC2)c1	3.35 µM	3.35		3.2 µM	4.02	10.8 µM	3.4	2.74	7.11	15.2 µM	1.69	1.75		3.49	1.75	1.6	1.33	1.89	1.41	2.43
Cc1ccc(C(=O)N2c3ccccc3N(C)n3cccc3C2CC(=O)O)cc1 (stereo not drawn)	> 100 µM	> 100	> 100	> 100 µM		> 100 µM	> 100			> 100 µM										
COc1cc(-c2csc(NC(=O)Nc3cc(C(F)(F)F)cc(C(F)(F)F)c3)n2)cc(OC)c1OC		14	10.9	12.6 µM	3.92	7.83 µM	11.8	18.3	6.9	12 µM		3.29	2.51	2.87	3.02	2.26	2.49	1.59	3.6	2.24
COc1ccc(C2=Nc3c/c(=C\c4c(O)[nH]c5ccc(Cl)cc45)ccc3=N2)cc1		4	2.77	5.13 µM		5.52 µM	2.65	3.17	4.8	37 µM		1.86	1.26	13.8	1.59	1.97	1.22		1.63	1.73
COc1ccc2nc(NCN3C(=O)c4ccccc4C3=O)sc2c1	> 100 µM	> 100	> 100	> 100 µM	> 100	> 100 µM	> 100	> 100	> 100											
COc1ccc2c(c1)CCc1[nH]nc(-c3cc(OC)c(OC)c(OC)c3)c1-2		38.8	11.8	21.7 µM	44.8	> 100 µM	11.8	> 100	22.3			0.242	< 0.01		1.62	< 0.01	< 0.01	< 0.01	< 0.01	< 0.01

Compound	TGI [1]	TGI [2] [µM]	TGI [3] [µM]	TGI [4]	TGI [5] [µM]	TGI [6]	TGI [7] [µM]	TGI [8] [µM]	TGI [9] [µM]	TGI [10]	GI50 [1] [µM]	GI50 [2] [µM]	GI50 [3] [µM]	GI50 [10] [µM]	GI50 [4] [µM]	GI50 [6] [µM]	GI50 [7] [µM]	GI50 [5] [µM]	GI50 [8] [µM]	GI50 [9] [µM]
c1cncc(-c2nc3ccccc3s2)c1	> 100 µM	> 100	> 100	> 100 µM	> 100		> 100	> 100	> 100	> 100 µM	> 100	> 100	> 100	> 100	> 100		> 100	> 100	> 100	50.7
CCOc1ccccc1N1C(=O)C(=O)C(c2nc3ccccc3o2)/C(=N\N)C1=O (stereo not drawn)	> 100 µM	> 100	> 100	> 100 µM		> 100 µM	> 100			> 100 µM										
CN[C@@H]1C[C@H]2O[C@@](C)([C@@H]1OC)n1c3ccccc3c3c4c(c5c6ccccc6n2c5c31)C(=O)N[C@H]4O	2.57 µM		> 3.31	1.48 µM	0.509	> 10 µM	1.07	> 5.9	0.143	> 4.01 µM	0.0794		0.157	0.0269	0.0845	0.0307	0.0395	0.0227	0.0448	0.0191
CC1=C(C(=O)Nc2ccc([N+](=O)[O-])cc2)C(c2ccccc2O)C(C(=O)Nc2ccc([N+](=O)[O-])cc2)=C(C)N1	51.1 µM	55.8		61.5 µM		61.7 µM	55			46.9 µM										
O=C(O)c1ccc([S-])cc1.[Au+].c1ccc(CN2[CH-]N(Cc3ccccc3)C(c3ccccc3)=C2c2ccccc2)cc1	1.2 µM	2.2	2.55	1.71 µM	1.18	2.72 µM	1.82	1.74	2.84		0.283	0.918	1.04		0.43	0.356	0.513	0.304	0.526	0.459
O=C1C(Cl)=C(Nc2cccc(O)c2)C(=O)N1Cc1ccc(Cl)cc1	25 µM	31.6		23 µM	5.64	> 100 µM	11.3	24.1	> 100	4.91 µM	8.18	15.6		1.21	4.93	2.98	2.11	1.1	5.48	8.51
Nc1nc(NC2C=C(CO)C(O)C2O)c([N+](=O)[O-])c(=O)[nH]1 (stereo not drawn)	> 100 µM	> 100	> 100	> 100 µM		> 100 µM	> 100			> 100 µM										
N#C/C(=C\Nc1ccccn1)C(=O)c1ccco1	> 100 µM	> 100	> 100	> 100 µM	> 100		> 100	> 100	> 100	> 100 µM										
COc1ccc(OC)c(NCC#N)c1	> 100 µM		> 100	> 100 µM		> 100 µM	> 100			> 100 µM										
COC1=C2C[C@H](O)C(C)C[C@@]2(OC)OC1=O (stereo partly drawn)	> 100 µM		> 100	> 100 µM		> 100 µM	> 100													
NC(CC(=O)Nc1ccc(Cl)cc1)=Nc1ccccc1	> 100 µM	> 100		> 100 µM			> 100			> 100 µM										
CCO/C=C1\N=C(C(Cl)c2ccccc2)OC1=O (stereo not drawn)	> 100 µM	> 100	> 100	> 100 µM		> 100 µM	> 100			> 100 µM										
COc1cc([C@H]2c3cc4c(cc3[C@H](NCc3ccc([N+](=O)[O-])cc3)C3COC(=O)[C@H]32)OCO4)cc(OC)c1O (stereo partly drawn)	> 81.8 µM	> 26	6.44	> 100 µM		> 100 µM	11.4			1.68 µM										
CCOC(=O)[C@H]1CSC[C@@H](C(=O)OC)N1	> 100 µM	> 100	> 100	> 100 µM		> 100 µM	> 100													
CC(C)(c1ccc(Oc2ccc(C#N)c(C#N)c2)cc1)c1ccc(Oc2ccc(C#N)c(C#N)c2)cc1		> 100		> 100 µM		> 100 µM	> 100					> 100			> 100	> 100	> 100			
NC(=O)C(=Cc1ccc(CP(=O)(O)O)cc1)C(N)=O	> 100 µM	> 100	> 100	> 100 µM			> 100													
O=c1nc(NC(c2ccccc2)(c2ccccc2)c2ccccc2)ccn1CCO	> 100 µM	> 100	> 100	> 100 µM			> 100			> 100 µM										
COc1cc(C=O)c(-c2cc3c(cc2C2(C)OCCS2)OCO3)c(OC)c1OC (stereo not drawn)	43.4 µM	129	30.2	26 µM		> 160 µM	34			29.5 µM										
CC1(C)CCC[C@]2(C)c3cc(O)ccc3CC[C@@H]12	36 µM	27.9	35.2	37 µM	30.4		31.2	30.6	31.3	35.4 µM	19.6	14	17.1	18.2	19.6		14.1	16.2	16.4	15.6
C[C@]1(C(=O)O)N[C@H](C(=O)O)CS1	> 1000 µM	> 1000	> 1000	> 1000 µM	> 1000	> 1000 µM	> 1000			> 1000 µM	> 1000	> 1000	> 1000	> 1000	> 1000	> 1000	> 1000	> 1000		
COC(=O)c1ccc(NC(=O)c2cc(OC)c(OC)c(OC)c2)cc1				> 100 µM		> 100 µM	> 100			> 85.4 µM										

Source: PubChem BioAssay (NCI)
